Measured values taken from ChEMBL document CHEMBL5370631, “Emopamil-Binding Protein Inhibitors for Treating Multiple Sclerosis” (ACS Med Chem Lett, 2023).

Molecular target: 3-beta-hydroxysteroid-Delta(8),Delta(7)-isomerase (Homo sapiens, UniProt Q15125)
Assay: Inhibition of human EBP isolated from HEK293T cells assessed as reduction in dihydrolathosterol-d5 formation using zymosterol-d5 as substrate pre incubated for 30 mins followed by substrate addition and incubated at 37 degC for 4 hrs by LC-APCI MRM MS analysis
Format: cell-free, HEK-293T

3-beta-hydroxysteroid-Delta(8),Delta(7)-isomerase, sequence (Q15125 whole entry): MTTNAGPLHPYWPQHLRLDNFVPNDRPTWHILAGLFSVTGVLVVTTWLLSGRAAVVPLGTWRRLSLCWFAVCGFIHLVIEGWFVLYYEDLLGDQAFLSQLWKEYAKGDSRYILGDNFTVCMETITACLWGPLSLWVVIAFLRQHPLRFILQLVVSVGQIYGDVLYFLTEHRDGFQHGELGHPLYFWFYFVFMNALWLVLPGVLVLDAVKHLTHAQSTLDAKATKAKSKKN

| Structure (SMILES) | IC50 [nM] |
| --- | --- |
| CC1CCN([C@H]2C[C@H]3CC[C@@H](C2)N3S(=O)(=O)c2ccc(OC(F)F)cc2)CC1 | < 50 |
| Cc1cc(S(=O)(=O)N2[C@@H]3CC[C@H]2C[C@@H](CN2CCOCC2)C3)n(C)n1 | < 50 |
| O=S(=O)(c1ccc(OC(F)F)cc1)N1C2CCC1CC(NC1CCOCC1)C2 (stereo unspecified) | < 50 |
| O=S(=O)(c1ccc(OC(F)F)cc1)N1[C@@H]2CC[C@H]1C[C@@H](NCC1(O)CCOCC1)C2 | < 50 |
| O=S(=O)(c1ccc(OC(F)F)cc1)N1C2CCC1CC(NCC1CCOCC1)C2 (stereo unspecified) | < 50 |
| CC12CC(NC3CC4CCC(C3)N4S(=O)(=O)c3ccc(OC(F)F)cc3)(CO1)C2 (stereo unspecified) | < 50 |
